From patent publication US20260257992A1, “AGONISTS OF SMALL HETERODIMER PARTNER FOR CANCER THERAPY” (THE BOARD OF TRUSTEES OF THE UNIVERSITY OF ILLINOIS, priority 2023, published 2026)

Columns and labels:
[1] = molecular target: T1, NR0B2 (Homo sapiens, UniProt Q15466); experiment: ABCA1 reporter screen to identify NR0B2 agonists (HepG2); format: cell-based; parameters: key: ✓: using strict cutoffs with respect to DSHN for passing each metric; X: using strict cutoffs with respect to DSHN for passing each metric; details: HepG2, 50 μM test compound, 1 μM GW3965; pass/fail with respect to DSHN
T1 construct: a reporter assay which makes use of the endogenous cholesterol homeostatic feedback loop; endogenous in cells; host or cells: HepG2
T1 sequence (Q15466 1-257): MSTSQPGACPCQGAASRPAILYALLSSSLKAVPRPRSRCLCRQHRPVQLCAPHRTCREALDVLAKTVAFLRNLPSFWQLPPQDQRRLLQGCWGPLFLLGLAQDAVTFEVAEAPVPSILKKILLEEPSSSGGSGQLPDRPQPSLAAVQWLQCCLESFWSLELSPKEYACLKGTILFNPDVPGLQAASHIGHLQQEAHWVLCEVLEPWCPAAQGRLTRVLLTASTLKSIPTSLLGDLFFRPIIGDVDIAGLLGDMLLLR
Description: Development of a more efficacious NR0B2 agonist. While DSHN was a useful proof-of-concept small molecule, macrophages required high doses and chronic exposure for robust influences on subsequent Tregs expansion. […] Therefore, we synthesized several derivatives of DSHN and screened them using a reporter assay which makes use of the endogenous cholesterol homeostatic feedback loop, where FXR activation upregulates NR0B2, which then inhibits LXR and its normal induction of ABCA1. We then followed this screen with several others with stringent cutoffs: effect on endogenous ABCA1 and IL1β expression, reduction of Treg expansion in either macrophage or DC co-cultures, and low cellular toxicity (FIG. 5A, Table 4).
Screening to identify NR0B2 agonists. HepG2 cells were co-transfected with ABCA1 renilla reporter plasmid and TK-control firefly luciferase vector at 20:1 using Lipofectamine 3000 reagent according to manufacturer's instructions for 24 hrs. Afterwards, 7000 cells were seeded in to 384 well f-bottom, white plates (Greiner Bio-One). Test compounds were added to the plates in a final working volume of 30 μL (for a final concentration of 50 μM) in presence of DMSO or 1 μM GW3965 and incubated for 20-24 hrs at 37° C. Luciferase activity was measured using the Luc-Pair Duo-Luciferase HT Assay kit (GeneCopoeia, Rockville, MD, USA) by adding luciferase substrates sequentially following manufacturer instructions. Luminescence was measured with 2 s integration times in a microplate reader (BioTek Cytation 5), 15 min after adding each substrate. The addition of reagents to the microplates was timed at each step to match the reading time delays and reading sequence of the microplate reader.

[2] = tested on: Lewis Lung tumors; experiment: Lewis Lung tumors grown in the flank; format: in vivo, mouse
Description: FIG. 7A-7I. DSHN-OMe reduces tumor and metastatic growth in murine models, in a myeloid cell-NR0B2 dependent manner. (A) E0771 cells were grafted into control mice (NR0B2^+/+; LysMCre^+) or mice where NR0B2 was knocked out in myeloid immune cells (NR0B2^fl/fl; LysMCre^+). 8 days post-graft, daily treatment with placebo or DSHN-OMe was initiated and subsequent tumor growth followed through time. Different letters denote statistical difference on the final measurement (day 21, 2-Way ANOVA followed by Šidák's post-hoc, N=5-8). (B) Waterfall plot illustration of data in (A) showing tumor volume at final day of measurement. Asterisk indicates significant difference (Chi-squared test, P<0.05). (C) Lewis Lung cells were grafted into control mice (NR0B2^+/+; LysMCre^+) or mice where NR0B2 was knocked out in myeloid immune cells (NR0B2^fl/fl; LysMCre^+). 10 days post-graft, daily treatment with placebo or DSHN-OMe was initiated and subsequent tumor growth followed through time. […] (G) EMT6 metastatic lungs were assessed for Ki67 mRNA and (H) FOXP3 mRNA. (I) EMT6 metastatic lungs were assessed for CD8+ cytotoxic T cells (CD8+). […]
Since Tregs are considered a problem common to many solid tumor types, we reasoned that DSHN-OMe should have broad efficacy. To test this, we evaluated the ability of DSHN-OMe to influence the growth of murine Lewis Lung tumors grown in the flank.

- ABCA1 reporter screen [1]: ✓
SMILES: CCN(CC)S(=O)(=O)c1cccc2cc(C(=O)OC)c(O)cc12 [DSHN-OMe, Methyl 5-(N,N-diethylsulfamoyl)-3-hydroxy-2-naphthoate]
- Lewis Lung tumor growth ([2]; NR0B2-replete mice, daily treatment from day 10, versus placebo): significantly reduced tumor growth
- Lewis Lung anti-tumor effect, dependence on myeloid NR0B2 ([2]; NR0B2fl/fl, LysMCre+ versus replete mice): only observed in mice with replete myeloid cell expression of NR0B2
